The values below come from patent US20210087238A1, “CELL PENETRATING PEPTIDES AND RELATED COMPOSITIONS AND METHODS” (Phylogica Limited, priority 2017, published 2021).

Data set [1] concerns CHO-K1 cells. The conditions noted are these: up to 50 μM; for cytotoxicity of peptides alone, cell viability: 24 h and 48 h incubation. How it is done: Cell viability effect on CHO-K1 cells of Phylomer™ CPPs and variants compared to the canonical CPPs TAT and Penetratin following 24 h (A) and 48 h (B) incubation with peptides. Cell viability was assessed by resazurin reduction potential. Membrane integrity of CHO-K1 cells were assessed by LDH release following 2 h (C) and 24 h (D) incubation with peptides. […] Results are representative of 3 independent experiments. Error bars represent standard deviation from the mean of triplicate samples.
Cells in were seeded at 2000-6000 cells/well, depending on cell line, in 96-well plates (PAP assays: CHO-K1, 3000 cells/well; peptide cytotoxicity assays: CHO-K1, 5000 cells/well; Bouganin assay: CHO-K1 and CHO-K1 EGFR, 2500 cells/well; ^DPMIα assays: T47D, 5000 cells/well; Omomyc assays: all cell lines, 5000 cells/well). In brief, adherent cells were allowed to attach for 24 h prior to addition of treatments whereas suspension cell lines were treated immediately following seeding. Following 2-48 h incubations with treatments, cell viability was measure by a variety of methods. Membrane integrity was assessed by the release of LDH into the media via the CytoTox-ONE reagent (Promega). Metabolic activity was measured either by resazurin reduction potential using PrestoBlue (LifeTech) or ATP activity using CellTitre-Glo (Promega). All assays followed manufacturer's instructions. IC50 values were calculated using Prism (version 7.0a, GraphPad).
When delivering therapeutics into a cell, it is critical that the delivery molecule itself is not cytotoxic. To assess innate cytotoxicity we tested the effects of FPPs alone on cell viability at 24 h (FIG. 6A) and 48 h (FIG. 6B) after addition of peptides. The effects of FPPs on membrane stability of cells was also assessed in a LDH enzymatic assay, measuring release of LDH from cells into surrounding media at 2 h (FIG. 6C) and 24 h (FIG. 6D) after treatment with peptides.

The test system of data set [2] is CHO-K1 cells. Kind of data set: PAP cell viability assay: SpyC_PAP conjugated to CPP_SpyT, resazurin reduction. Format: cell-based. How it is done:
With the exception of SpyC PAS proteins, conjugations were set up at a SpyCatcher:SpyTag ratio of 1:1.25, with a 40 μM final concentration for the SpyCatcher moiety. SpyC proteins and SpyTag peptides were incubated for 2 h at 22° C. with gentle mixing, and then left at 4° C. overnight. Conjugation efficiencies were analyzed on 4-16% SDS-PAGE gels stained with Gel Code Blue Reagent (Thermo Fisher Scientific). SpyC_PAS proteins were conjugated with SpyTag peptides at ratio 1:1.1, mixed and incubated at room temperature for 30 mins before being stored overnight at 4° C.
All assays followed manufacturer's instructions.
SpyC-PAP/CPP-SpyT complex IC50s were ranked according to potency to determine impact of changes to primary CPP sequence. Sequence variations positively impacting on potency are retained for further optimization, whereas sequence variations deleterious to potency are excluded, thus establishing sequence activity relationships for the CPP peptide. SpyC_BLA/CPP-SpyT complex median cell fluorescence at 4 μM concentration was ranked according to intensity to determine impact of changes to primary CPP sequence. Sequence variations positively impacting on intensity were retained for further optimization, whereas sequence variations deleterious to intensity were excluded, thus establishing sequence activity relationships for the CPP peptide.
For the first readout of functional activity we chose the proapoptotic peptide PAP (SEQ ID NO:61; Ellerby et al 1999, Nat Med, 5, 1032-1038) as a functional cargo and expressed it recombinantly, fused to SpyCatcher (SEQ ID NO:83) (abbreviated as “SpyC_PAP” or “SpyC-PAP”; SEQ ID NO:62) to enable subsequent conjugation with synthetic CPP-SpyTag fusion proteins. Mammalian cells were incubated with SpyC_PAP-CPP protein conjugates, which induce apoptosis if successfully delivered into cells. […] As a representative member of the largest cluster of sequences from the screen, FPP1 was selected for additional optimization studies.
Background: Alamar Blue is a resazurin reagent that responds to reducing activity.

The mark [3] stands for this setting: PAP assay, variant_SpyT/SpyC_PAP.

As for `CC[C@H](C)[C@H](NC(=O)[C@H](CCCCN)NC(=O)[C@@H](NC(=O)[C@H](CCC(N)=O)NC(=O)[C@@H](N)CCCNC(=N)N)[C@@H](C)CC)C(=O)N[C@@H](Cc1c[nH]c2ccccc12)C(=O)N[C@@H](Cc1ccccc1)C(=O)N[C@@H](CCC(N)=O)C(=O)N[C@@H](CC(N)=O)C(=O)N[C@@H](CCCNC(=N)N)C(=O)N[C@@H](CCCNC(=N)N)C(=O)N[C@@H](CCSC)C(=O)N[C@@H](CCCCN)C(=O)N[C@@H](Cc1c[nH]c2ccccc12)C(=O)N[C@@H](CCCCN)C(=O)N[C@@H](CCCCN)C(=O)NCC(=O)N[C@@H](C)C(=O)N[C@@H](CO)C(=O)N[C@@H](C)C(=O)N[C@@H](Cc1c[nH]cn1)C(=O)N[C@H](C(=O)N[C@H](C(=O)N[C@@H](CCSC)C(=O)N[C@H](C(=O)N[C@@H](CC(=O)O)C(=O)N[C@@H](C)C(=O)N[C@@H](Cc1ccc(O)cc1)C(=O)N[C@@H](CCCCN)C(=O)N1CCC[C@H]1C(=O)N[C@H](C(=O)N[C@@H](CCCCN)C(=O)NCC(=O)O)[C@@H](C)O)C(C)C)C(C)C)[C@@H](C)CC` [Penetratin CPP-SpyTag fusion], the “cytotoxicity of peptides alone, cell viability” value in the data set with CHO-K1 cells [1] is “some inconsistent cytotoxicity at the highest concentrations”.
In the case of “PLRPRRPRTQERRRRQPPRPRRPRTQERRRRQPPRPRR (Amino acid sequence of a Sindbis virus capsid-derived CPP (SAR 17)) [FPP1-SAR17]”, the “loss/reduction of activity (potency) relative to parental FPP1” value in the data set with CHO-K1 cells [2] (setting [3]) amounted to 1.5 fold.
Regarding “KTQEKKKKQTTKTKKTKTQEKKKKQTTKTKR (Amino acid sequence of a Sindbis virus capsid-derived CPP (1746P_T)) [FPP1-P_T]”, the “effect of truncation or mutation on CPP potency” value with CHO-K1 cells [2] (PAP assay, relative to parental FPP1) is given as “unaffected”.
In the case of `CC[C@H](C)[C@H](NC(=O)[C@H](Cc1c[nH]cn1)NC(=O)[C@H](C)NC(=O)[C@H](CO)NC(=O)[C@H](C)NC(=O)CNC(=O)[C@H](CCCNC(=N)N)NC(=O)[C@H](CCCNC(=N)N)NC(=O)[C@H](CCCNC(=N)N)NC(=O)[C@H](CCC(N)=O)NC(=O)[C@H](CCCNC(=N)N)NC(=O)[C@H](CCCNC(=N)N)NC(=O)[C@H](CCCCN)NC(=O)[C@H](CCCCN)NC(=O)[C@H](CCCNC(=N)N)NC(=O)CN)C(=O)N[C@H](C(=O)N[C@@H](CCSC)C(=O)N[C@H](C(=O)N[C@@H](CC(=O)O)C(=O)N[C@@H](C)C(=O)N[C@@H](Cc1ccc(O)cc1)C(=O)N[C@@H](CCCCN)C(=O)N1CCC[C@H]1C(=O)N[C@H](C(=O)N[C@@H](CCCCN)C(=O)NCC(=O)O)[C@@H](C)O)C(C)C)C(C)C` [TAT-SpyTag fusion], in the data set on CHO-K1 cells [1] (2 h and 24 h incubation), the “cytotoxicity of peptides alone, LDH release (membrane integrity)” value is reported as “no cytotoxic activity”. For the same compound, the “cytotoxicity of peptides alone, cell viability” value in the data set on CHO-K1 cells [1] was “no cytotoxic activity”.
As for “PLKPKKPKTQEKKKKQPPKPKKPKTQEKKKKQPPKPK (Amino acid sequence of a Sindbis virus capsid-derived CPP (SAR12)) [FPP1-SAR12]”, the “loss/reduction of activity (potency) relative to parental FPP1” value in the data set on CHO-K1 cells [2] (setting [3]) is listed as “approximately 2.2 fold”.
Consider “SpyC only control: SpyCatcher control without CPP [reference compound]”, for which the “cell death caused by SpyC-PAP conjugate” value with CHO-K1 cells [2] (compared to TAT or Penetratin-delivered SpyC_PAP, FIG. 4A) is “no effect”.
As for “TLKTKKTKTQEKKKKQTTKTKKTKTQEKKKKQTTKTKR (Amino acid sequence of a Sindbis virus capsid-derived CPP (SAR16 P_T)) [FPP1-SAR16]”, in the data set on CHO-K1 cells [2] (setting [3]), the “improvement of activity relative to full length FPP1” value stood at 1.7 fold.
“KKQPPKPKKPKTQEKKKKQPPKPKR (Amino acid sequence of a Sindbis virus capsid-derived CPP (SAR5)) [FPP1-SAR5]”: the “loss/reduction of activity (potency) relative to parental FPP1” value with CHO-K1 cells [2] (setting [3]) is listed as 3 fold.
